Values after ≈ are worked out from the molar mass of the structure shown.
What was measured:
ARPE-19 cells = assay: Outer blood retinal barrier: ARPE-19 monolayer permeability to FITC-dextran; assay type: cell-based, human; details: for p < 0.05 (ARPE19 permeability versus diabetic milieu): IL-β, after 90 min
Excerpt: The mechanisms of actions involved in the anti-permeability effect of the tested treatments were explored by assessing permeability to fluorescent dextran and proinflammatory cytokines production using their mRNA expression levels by RT-PCR.
Outer Blood Retinal Barrier conditions: human retinal pigment epithelial cells (RPE) cultures ARPE-19, a spontaneously immortalised human RPE cell line were obtained from American Type Culture Collection (Manassas, Va., USA). ARPE-19 cells and they were cultured in euglycaemic conditions (D-glucose (D-Glc), 5.5 mmol/L) and hyperglycaemic conditions (D-glucose, 25 mmol/L) for 18 days at 37° C. under 5% (vol./vol.) CO2 in medium (DMEM/F12) supplemented with 10% (vol./vol.) FBS (Hyclone; Thermo Fisher Scientific, UT, USA) and 1% (vol./vol.) penicillin/streptomycin (Hyclone; Thermo Fisher Scientific). ARPE-19 cells from passage 20 were used and the medium changed every 3-4 days. For permeability studies, ARPE-19 cells were seeded at 400,000 cells/ml (80,000 RPE cells/well) in 0.33 cm^2 HTS-Transwells (Costar; Corning, N.Y., USA). For real-time PCR, western blot analysis and immunofluorescence cells are seeded at 20,000 cells/ml.
Experimental conditions and treatments: apart from the euglycemic condition, eighteen different conditions were tested in cells cultured under 25 mmol/L D-glucose:
Condition 2) Cells are treated with diabetic milieu 25 mM D-Glucose+vehicle (days 15, 16 and 17 at one application/day) in order to evaluate their effect in preventing the cell damage provoked by the diabetic milieu.
Condition 9) Cells were treated with 25 mM D-Glucose and bevacizumab (0.2 mg/ml) for 72 h (days 15, 16 and 17 at one application/day) to evaluate their potential cytotoxic effects.
Condition 10)=Diabetic milieu; cells were treated with 25 mM D-Glucose+[…] (10 ng/ml)+TNF-α (25 ng/ml)+VEGF (25 ng/ml), for 48 h (days 16 and 17 at one application/day) in order to provoke the disruption of the monolayer.
Condition 17) Cells are treated with diabetic milieu (25 mM D-Glucose+IL-1β (10 ng/ml)+TNF-α (25 ng/ml)+VEGF (25 ng/ml))+bevacizumab (0.2 mg/mL) (days 15, 16 and 17 at one application/day) in order to evaluate their effect in preventing the cell damage provoked by the diabetic milieu.
Measurement of ARPE-19 permeability: The permeability of RPE cells was determined at 18 days by measuring the apical-to basolateral movements of FITC-dextran (40 kDa) (Sigma, St Louis, […]., USA) following a procedure previously reported by Villarroel et al. Exp Eye Res, 2009, 89, 913-920.

physchem = details: water
Pan02 tumor cells = assay: Subcutaneous murine pancreatic cancer syngenic model (Pan02); assay type: in vivo, C57BL/6 mice; set-up: Mean % inhibition of tumor volume Pan02 model: concentration or dose not given beside the values
Protocol: The objective of this study was to evaluate preclinically the in vivo therapeutic efficacy study of compounds according to the present invention for the treatment of subcutaneously murine pancreatic cancer syngenic model (Pan02) in female C57BL/6 mice and kidney cancer syngenic model (Renca) in female BALB/c mice.
Cell Culture: the Pan02 tumor cells were maintained in vitro with RPMI 1640 medium supplemented with 10% fetal bovine serum at 37° C. in an atmosphere of 5% CO2 in air. The cells in exponential growth phase were harvested and quantitated by cell counter before tumor inoculation.
Tumor Inoculation for Pan02 model: each mouse was inoculated subcutaneously in the right front flank region with Pan02 tumor cells (3×10^6) in 0.1 mL of PBS for tumor development.
Randomization: The randomization was started when the mean tumor size reaches approximately 100 (80-110) mm^3. For both models, 48 mice were enrolled in the study. All animals were randomly allocated to 6 study groups. Randomization were performed based on “Matched distribution” method using the multi-task method (StudyDirector™ software, version 3.1.399.19). The date of randomization was denoted as day 0.
Observation and Data Collection: After tumor cells inoculation, the animals were checked daily for morbidity and mortality. During routine monitoring, the animals were checked for any effects of tumor growth and treatments on behavior such as mobility, food and water consumption, body weight gain/loss (body weights were measured twice per week after randomization), eye/hair matting and any other abnormalities. Mortality and observed clinical signs were recorded for individual animals in detail.
Tumor volumes were measured twice per week after randomization in two dimensions using a caliper, and the volume were expressed in mm3 using the formula: “V=(L×W×W)/2, where V is tumor volume, L is tumor length (the longest tumor dimension) and W is tumor width (the longest tumor dimension perpendicular to L). Tumor weight were measured at the end of study. Dosing as well as tumor and body weight measurements were conducted in a Laminar Flow Cabinet.
Statistical Analysis: To compare tumor volumes of different groups at a pre-specified day, Bartlett's test was firstly used to check the assumption of homogeneity of variance across all groups. When the p-value of Bartlett's test is >0.05, One-way ANOVA were used to test overall equality of means across all groups.
If the p-value of the One-way ANOVA is <0.05, post hoc testing by running Tukey's HSD (honest significant difference) tests for all pairwise comparisons, and Dunnett's tests for comparing each treatment group with the vehicle group were performed. When the p-value of Bartlett's test is <0.05, Kruskal-Wallis test were used to test overall equality of medians among all groups. If the p-value the Kruskal-Wallis test is <0.05, post hoc testing by running Conover's non-parametric test for all pairwise comparisons or for comparing each treatment group with the vehicle group were performed, both with single-step p-value adjustment. All statistical analyses were done in R-a language and environment for statistical computing and graphics (version 3.3.1). All tests are two-sided unless otherwise specified, and p-values of <0.05 are regarded as statistically significant.

[1] = No 3-5: 25 mM D-Gluc + compound 25 μg/mL
[2] = No 6-8: 25 mM D-Gluc + compound 50 μg/mL + VEGF, TNF-α, (so in the source)
[3] = No 11-13: 25 mM D-Gluc + compound 25 μg/mL + VEGF, TNF-α, (diabetic milieu)
[4] = No 11-13: compound 25 μg/mL + VEGF, TNF-α
[5] = No 14-16: 25 mM D-Gluc + compound 50 μg/mL + VEGF, TNF-α, (diabetic milieu)
[6] = No 14-16: compound 50 μg/mL + VEGF, TNF-α
[7] = day 13, 15 mg/kg, 5 μL/g, I.V., QD*5 for 2 weeks

O=C(O)c1cc(NC(=O)c2cc(O)cc(C(=O)Nc3ccc(O)c(C(=O)O)c3)c2O)ccc1O [IIc-007a, 5-(3-(3-carboxy-4-hydroxyphenylaminocarbonyl)-2,5-dihydroxybenzamido)-2-hydroxy benzoic acid]
% permeability ARPE19 (ARPE-19 cells; [1]): 66.1 ± 4.9%
% permeability ARPE19 (ARPE-19 cells; [2]): 113.1 ± 11.4%
% permeability ARPE19 (ARPE-19 cells; [3]): 114.7 ± 19.0%
p < 0.05 (ARPE19 permeability versus diabetic milieu) (ARPE-19 cells; [4]): * (* p < 0.05 for FITC dextran leakage measured after 90 min in [ng/mL/cm^2] in comparison with diabetic milieu (25 mM D-Gluose + VEGF, TNF-α, IL-β))
% permeability ARPE19 (ARPE-19 cells; [5]): 136.8 ± 13.0%
p < 0.05 (ARPE19 permeability versus diabetic milieu) (ARPE-19 cells; [6]): * (* p < 0.05 for FITC dextran leakage measured after 90 min in [ng/mL/cm^2] in comparison with diabetic milieu (25 mM D-Gluose + VEGF, TNF-α, IL-β))
solubility (physchem): 1800 µg/mL (≈ 3.84 mM)

O=C(O)c1cc(O)cc(CS(=O)(=O)Cc2cc(O)cc(C(=O)O)c2O)c1O [IVc-059a, 3-((2,5-Dihydroxy-3-carboxyphenyl)methylsulfonylmethyl)-2,5-dihydroxybenzoic acid]
% permeability ARPE19 (ARPE-19 cells; [1]): 70.2 ± 8.8%
% permeability ARPE19 (ARPE-19 cells; [2]): 112.6 ± 19.8%
% permeability ARPE19 (ARPE-19 cells; [3]): 98.5 ± 36.5%
p < 0.05 (ARPE19 permeability versus diabetic milieu) (ARPE-19 cells; [4]): * (* p < 0.05 for FITC dextran leakage measured after 90 min in [ng/mL/cm^2] in comparison with diabetic milieu (25 mM D-Gluose + VEGF, TNF-α, IL-β))
% permeability ARPE19 (ARPE-19 cells; [5]): 130.4 ± 24.8%
Tumor growth (in words) (Pan02 tumor cells; 15 mg/kg I.V.): significantly suppressed tumor growth
TGI value (Pan02 tumor cells; 15 mg/kg I.V., P<0.05): 20.98%
Mean % inhibition of tumor volume Pan02 model (Pan02 tumor cells; Day 0): −0.11%
Mean % inhibition of tumor volume Pan02 model (Pan02 tumor cells; Day 3): 19.86%
Mean % inhibition of tumor volume Pan02 model (Pan02 tumor cells; Day 6): 18.64%
Mean % inhibition of tumor volume Pan02 model (Pan02 tumor cells; Day 9): 18.49%
Mean % inhibition of tumor volume Pan02 model (Pan02 tumor cells; Day 13): 20.98%
TGI (%) (Pan02 tumor cells; [7]): 20.98%
Tumor volume ± SEM (mm^3) (Pan02 tumor cells; [7]): 148.49 ± 7.05 (8) mm^3

O=C(O)c1cc(NC(=O)c2cc(O)c(C(=O)Nc3ccc(O)c(C(=O)O)c3)cc2O)ccc1O [Ic-007a, 5-(4-(3-carboxy-4-hydroxyphenylaminocarbonyl)-2,5-dihydroxybenzamido)-2-hydroxy benzoic acid]
% permeability ARPE19 (ARPE-19 cells; [1]): 75.2 ± 11.1%
% permeability ARPE19 (ARPE-19 cells; [2]): 107.3 ± 43.9%
% permeability ARPE19 (ARPE-19 cells; [3]): 103.7 ± 15.7%
p < 0.05 (ARPE19 permeability versus diabetic milieu) (ARPE-19 cells; [4]): * (* p < 0.05 for FITC dextran leakage measured after 90 min in [ng/mL/cm^2] in comparison with diabetic milieu (25 mM D-Gluose + VEGF, TNF-α, IL-β))
% permeability ARPE19 (ARPE-19 cells; [5]): 127.1 ± 13.5%
p < 0.05 (ARPE19 permeability versus diabetic milieu) (ARPE-19 cells; [6]): * (* p < 0.05 for FITC dextran leakage measured after 90 min in [ng/mL/cm^2] in comparison with diabetic milieu (25 mM D-Gluose + VEGF, TNF-α, IL-β))

From patent US20230150951A1, “2,5- OR 2,6-DISUBSTITUTED HYDROQUINONE DERIVATIVES WITH AT LEAST ONE CARBOXY, SULFO OR AMIDO GROUP USEFUL AS MEDICAMENTS” (OM PHARMA SA, priority 2020, published 2023)
